Here are results for twelve compounds from patent publication US10399986B2, “Inhibitors of leukotriene A4 hydrolase” (CELTAXSYS, INC., priority 2013, dated 2019).

Several values for one entry are separate records, joined by “and”; a condition that tells them apart may be missing. Equal entries are not always repeated. Where two headings read alike, the source gives them in different places.

The target in experiment [1] is T1, LTA4-h (Homo sapiens, UniProt P09960).
T1 sequence (P09960 1-611): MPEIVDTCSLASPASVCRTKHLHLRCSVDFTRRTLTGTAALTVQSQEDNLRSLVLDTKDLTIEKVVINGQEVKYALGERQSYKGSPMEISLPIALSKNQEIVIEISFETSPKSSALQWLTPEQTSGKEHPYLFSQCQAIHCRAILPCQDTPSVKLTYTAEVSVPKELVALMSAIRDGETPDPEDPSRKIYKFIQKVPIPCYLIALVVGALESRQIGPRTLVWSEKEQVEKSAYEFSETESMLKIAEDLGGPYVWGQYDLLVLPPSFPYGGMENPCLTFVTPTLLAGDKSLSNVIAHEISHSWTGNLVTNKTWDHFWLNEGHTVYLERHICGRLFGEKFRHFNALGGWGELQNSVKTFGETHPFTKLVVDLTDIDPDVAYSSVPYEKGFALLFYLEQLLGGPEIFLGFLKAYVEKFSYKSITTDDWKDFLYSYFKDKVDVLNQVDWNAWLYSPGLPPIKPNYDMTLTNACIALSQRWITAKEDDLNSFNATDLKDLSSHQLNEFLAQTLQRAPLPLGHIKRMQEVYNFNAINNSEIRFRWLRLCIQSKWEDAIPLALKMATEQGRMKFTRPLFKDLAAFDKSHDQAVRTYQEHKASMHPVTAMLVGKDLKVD
Description: hydrolase assay. Format: biochemical. From the text: The compounds of the invention can be tested for their ability to inhibit LTA4-h by various known assays and by assays described herein. For example, the compounds can be tested for their ability to inhibit LTA4-h activity by assaying the compounds in the hydrolase-homogeneous time resolved fluorescence assay. This assay, which is a two-step assay, measures the hydrolysis of […] by analyzing the amount of LTB4 produced. The first step involves the enzymatic conversion of […] and the second step involves the quantification of the […] formed with a homogeneous time resolved fluorescence assay.
(§1) The whole blood and aminopeptidase assays were performed as described in Penning et al., J. Med. Chem. 2000, 43, 721-735, and Rudberg et al., J. Biol. Chem. Vol. 279, No. 26, Issue of June 25, pp. 27376-27382, 2004, the contents of each of which are expressly incorporated by reference herein. The hydrolase assay was performed as described in U.S. Pat. No. 7,737,145, the contents of which are expressly incorporated herein.

Experiment [2] concerns the target T1, LTA4-h. Kind of experiment: peptidase (aminopeptidase) assay. Format: biochemical.
Text: Since LTA4-h hydrolase is grouped with the M1 family of zinc metalloproteases (see, Rudberg, P. C. et al., J. Biol. Chem. 2002, Vol. 277, page 1398-1404), the compounds of the invention can be tested in the standard hydrolase and peptidase assay to determine the compounds' kinetic constants for binding to LTA4-h hydrolase and for inhibiting LTB4 synthesis (see Askonas, L. J., et al., The Journal of Pharmacology and Experimental Therapeutics 2002, 300(2): 577-582; Penning, T. D., J. Med. Chem. 2000, 43(4): 721-735; Kull, F. et al., The Journal of Biological Chemistry 1999, 274 (49): 34683-34690, the contents of which are expressly incorporated by reference herein).
as §1

The next experiment concerns the target T2, LTA4-h hydrolase (Homo sapiens, UniProt P09960).
T2 construct: whole blood assay using human, mouse, rat or dog whole blood; from tissue; host or cells: whole blood
T2 sequence (P09960 1-611): T1 sequence (P09960 1-611)
Kind of experiment: whole blood assay (WBA). Format: cell-based. On the procedure:
Compounds of the invention can also be tested for their ability as inhibitors of LTA4-h hydrolase in the whole blood assay using human, mouse, rat or dog whole blood (see Penning, T. D. et al., J. Med. Chem. (2000), 43(4): 721-735 for a description of a human whole blood assay and a mouse whole blood assay, the contents of which are expressly incorporated herein).
as §1

Experiment [3] deals with ionophore-induced LTB4 production. To be noted: oral administration; mouse blood ex vivo; cited from earlier work.
The subject of a further experiment is cotton top tamarins. To be noted: eight weeks of treatment; cited from earlier work.
In experiment [4] the test system is ionophore-induced LTB4 production. To be noted: oral administration; rat peritoneum in vivo; cited from earlier work.

On LTA4-h [1] (at 1 uM), “2-(4-phenoxyphenylamino)-3-cyano-6-(2-nitro-3-hydroxycarboxyphenyl)pyrazolo[1,5-a]pyrimidine [Compound 9]” displayed a Hydrolase % inhibition of 20% inhibition at 1 uM. For the same compound, the IC50 – broadly, the concentration that inhibits the measured activity by half – against LTA4-h [2] stood at 3.3 nM.

`N#Cc1c(Nc2ccc(Oc3ccccc3)cc2)nn2cc(N)cnc12` [Compound 1]: the results for the IC50 on LTA4-h [1], against LTA4-h [2] and on LTA4-h hydrolase were 1500 nM, 280 nM and over 8.8 µM, respectively.

`CS(=O)(=O)c1ccc(-c2cnc3c(C#N)c(Nc4ccc(Oc5ccccc5)cc4)nn3c2)c([N+](=O)[O-])c1` [Compound 2]: the IC50 was 3700 nM against LTA4-h [1], 260 nM against LTA4-h [2] and over 7.2 µM at LTA4-h hydrolase.

For the compound `N#Cc1c(Nc2ccc(Oc3ccccc3)cc2)nn2cc(-c3cc(C(=O)O)ccc3[N+](=O)[O-])cnc12` [Compound 3], the inhibition (commonly the change of the read-out against control, counted positive when it falls) at 3 µM on LTA4-h [1] came to 39%. Moreover, the IC50 on LTA4-h [2] was 430 nM; against LTA4-h hydrolase, over 10 µM.

`N#Cc1c(Nc2ccc(Oc3ccccc3)cc2)nn2cc(C(=O)c3cc([N+](=O)[O-])ccc3O)cnc12` [Compound 4] had an inhibition at 3 µM against LTA4-h [1] of 48%. The compound also registered an IC50 against LTA4-h [2] of 1700 nM.

On to `N#Cc1c(Nc2ccc(Oc3ccccc3)cc2)nn2cc(C(=O)c3ccccc3O)cnc12` [Compound 5], for which the IC50 is 1400 nM and 490 nM against LTA4-h [1]; 90 nM and 20 nM against LTA4-h [2]; 4.9 µM and 3 µM against LTA4-h hydrolase.

Compound `N#Cc1c(Nc2ccc(Oc3ccccc3)cc2)nn2cc(C(=O)c3cc(Cl)cc(Cl)c3O)cnc12` [Compound 6] gave an inhibition at 3 µM against LTA4-h [1] of 15%. At LTA4-h [2], this compound returned an IC50 of 960 nM.

On to `N#Cc1c(Nc2ccc(Oc3ccccc3)cc2)nn2cc(C(=O)c3cc(Cl)ccc3O)cnc12` [Compound 7], for which the 50% inhibitory concentration (IC50) against LTA4-h [1] is 1600 nM and 2900 nM; at LTA4-h [2], 30 nM and 10 nM; on LTA4-h hydrolase, 4.6 µM and 3 µM.

For `N#Cc1c(Nc2ccc(Oc3ccccc3)cc2)nn2cc(-c3ccc(C(=O)O)cc3[N+](=O)[O-])cnc12` [Compound 10], the inhibition at 1 µM on LTA4-h [1] (at 1 uM) is 20%. Further, the midpoint of inhibition on LTA4-h [2], the IC50, lay at 120 nM.

In the case of `N#Cc1c(Nc2ccc(Oc3ccccc3)cc2)nn2cc(-c3cccc(C(=O)O)n3)cnc12` [Compound 11], the IC50 at LTA4-h [2] was found to be 270 nM.

`N#Cc1c(Nc2ccc(Oc3ccccc3)cc2)nn2cc(-c3ccc(C(=O)O)cn3)cnc12` [Compound 12] returned an IC50 on LTA4-h [2] of 84 nM.

As for `CN(CCCOc1ccc(Cc2ccccc2)cc1)CCC(=O)O.Cl` [SC57461], the “inhibition of ionophore-induced LTB4 production” value in experiment [3] and in experiment [4] was “caused inhibition” in each case. The colitis symptoms entry in the experiment with cotton top tamarins is recorded as “significantly improved colitis symptoms”.
